Experimental data taken from patent publication US5360794A, “Disubstituted and deoxy disubstituted derivatives of α-D-mannofuranosides and β-L-gulofuranosides having anti-inflammatory and anti-proliferative activity” (Medicarb Inc., priority 1992, dated 1994).

Tests used:
[1] = system: BUD-8 human skin fibroblast cells; assay: BUD-8 human cell line fibroblast proliferation assay; format: cell-based; details: estimated IC50, BUD-8 cells, 3 days, MTT
Excerpt: ii BUD-8 human cell line fibroblast proliferation assay.
The MLR assay measures the effects of a study compound on the activation and antigen presentation of T-lymphocytes, therefore determining immunomodulatory properties. The mouse spleen cell mitogen-induced blastogenesis and the BUD-8 human fibroblast proliferation assays measure the effects of the compounds of the present invention on cellular proliferation of cells involved in the pathogenesis of autoimmune diseases. These two assays are appropriate as screens to ascertain anti-inflammatory and/or autoimmune beneficial activity and are art accepted for such purposes.
The skin cell fibroblast line, BUD-8, was originally derived from the normal skin of a person and can now be obtained from the American Type Culture Collection, Rockville, Md. The concentration of the compounds which were used in this assay were: 1, 10, 30, 100, and 300 μM. The vehicle was used as the negative control. Test compounds were prepared in DMSO at a stock concentration of 300 mM. Appropriate dilutions were made in culture medium.
In this assay BUD-8 cells were collected, counted, and diluted to 2×10^4 cells/ml. 0.1 ml was plated per well to give 2×10^3 cells/well. The compounds of the present invention were diluted in culture medium to the appropriate concentrations. Aliquates of 100 μl were distributed to triplicate wells. Control wells with vehicle and wells with media were also run. After a three day incubation at 37° C. with 5% carbon dioxide, proliferation was measured by adding 20 μl of MTT (10 mg/ml in PBS) (3-[4,5-dimethyl thiazol-2-yl]-2,5-diphenyl-tetrazolium bromide) to each well. Plates were incubated for 4 hours at 37° C., after which 180 μl of 10% SDS in PBS were added. After an overnight incubation, the optical density (OD) of each well was read using a Molecular Devices microplate reader at 570-650 nm.
Duplicate cultures were also set up to measure viability. After 3 days of incubation, supernatants were assayed for lactate dehydrogenase (LDH) activity to determine the viability of the cells, which is an indication of the toxicity of the test article on the BUD-8 cells. 0.1 ml of supernatent was mixed with 0.1 ml of the LDH substrate mixture which contains 5.4×10^-2 M L(+) lactate, 6.6×10^-4 M 2-p-iodophenyl-3-p-nitrophenyl tetrazolium chloride, 2.8×10^-4 M phenazine methosulfate, 1.3×10^-3 M NAD, and 0.2M Tris buffer. pH 8.2. Plates were read immediately for 5 minutes at 490 nm using a Molecular Devices microplate reader.
The mean for each test article treated group was determined and compared to the mean of the control group. The percent change from the control was calculated, and the IC50 estimated. The criteria used to establish activity levels were:
Sixteen (16) test articles were assayed for their ability to inhibit fibroblast proliferation. The test article were added to BUD-8 cell cultures to give final concentrations of 1, 10, 30, 100, and 300 μM. The proliferation observed in the test article treated wells were compared to the DMSO control wells.

[2] = system: various tumor cell lines (leukemia, melanoma, lung cancer, colon cancer, renal cancer, ovarian cancer, brain cancer); assay: Tumor cell line growth inhibition (average over lines of seven cancer types); format: cell-based; details: Log 10 values; average GI50 over tumor cell lines from seven cancer types; read-out: GI (μM) Log 10 values (Average GI50) (converted)
Description: The compounds of the present invention were also tested against various tumor cell lines, derived from seven cancer types. These include leukemia, melanoma, lung cancer, colon cancer, renal cancer, ovarian cancer, and brain cancer. Most of the compounds have shown significant activity in various screens, particularly against colon cancer and melanoma.

[3] = Homo sapiens, Skin fibroblast, 72 h

Molecule | IC50 [1, 3] [µM] | GI50 [2] [µM] | IC50 [1] [µM]
CCCCCCCCCOCCCO[C@H]1O[C@H]([C@H](O)CN2CCCC2)[C@@H]2OC(C)(C)O[C@H]12 [Compound 3, n-Nonyloxypropyl 2,3-O-(1-methylethylidene)-6-deoxy-pyrrolidinyl-α-D-mannofuranoside] | 18 | 9.12 | 
CCCCCCCCCOCCCO[C@H]1O[C@H]([C@H](O)CN2CCCCC2)[C@@H]2OC(C)(C)O[C@H]12 [Compound 4, n-Nonyloxypropyl 2,3-O-(1-methylethylidene)-6-deoxy-6-piperidinyl-α-D-mannofuranoside] | 35 |  | 
CCCCCCCCCOCCCO[C@H]1O[C@H]([C@H](O)CN2CCOCC2)[C@@H]2OC(C)(C)O[C@H]12 [Compound 5, n-Nonyloxypropyl 2,3-O-(1-methylethylidene)-6-deoxy-6-morpholinyl-α-D-mannofuranoside] | > 200 |  | 
CCCCCCCCCOCCCO[C@H]1O[C@H]([C@H](O)CN2CCCCCC2)[C@@H]2OC(C)(C)O[C@H]12 [Compound 6, n-Nonyloxypropyl 2,3-O-(1-methylethylidene)-6-deoxy-6-hexamethyleneimino-α-D-mannofuranoside] | 38 |  | 
CCCCCCCCCOCCCO[C@H]1O[C@H]([C@H](O)CNCCCCCCC)[C@@H]2OC(C)(C)O[C@H]12 [Compound 8, n-Nonyloxypropyl 2,3-(1-methylethylidene)-6-deoxy-6-aminoheptyl-α-D-mannofuranoside] | 16 | 2.29 | 
CCCCCCCCCOCCCO[C@H]1O[C@H]([C@@H](C)OCCCN(C)C)[C@@H]2OC(C)(C)O[C@H]12 [Compound 10, n-Nonyloxypropyl 2,3-O-(1-methylethylidene)-6-deoxy-5-O-(N,N-dimethylaminopropyl)-α-D-mannofuranoside] | 17 | 11.5 | 
CCCCCCCCCOCCCO[C@H]1O[C@H]([C@@H](C)OCCN2CCCC2)[C@@H]2OC(C)(C)O[C@H]12 [Compound 12, n-Nonyloxypropyl 2,3-O-(1-methylethylidene)-6-deoxy-5-O-(N'-ethylpyrrolidinyl)-α-D-mannofuranoside] | 42 |  | 
CCCCCCCCCOCCCO[C@H]1O[C@H]([C@H](C)N2CCCC2)[C@@H]2OC(C)(C)O[C@H]12 [Compound 15, n-Nonyloxypropyl 5,6-dideoxy-2,3-O-(1-methylethylidene)-5-pyrrolidinyl-β-L-gulofuranoside] | 170 |  | 
CC1(C)O[C@@H]2[C@H](O1)[C@@H](OCCCc1ccccc1)O[C@@H]2[C@H](O)CN1CCCC1 [Compound 20, Phenylpropyl 6-deoxy 2,3-O-(1-methylethylidene)-6-pyrrolidinyl-α-D-mannofuranoside] | > 300 | 87.1 | 
CCCCCCCNC[C@@H](O)[C@H]1O[C@H](OCCCc2ccccc2)[C@H]2OC(C)(C)O[C@H]21 [Compound 21, Phenylpropyl 6-deoxy 2,3-O-(1-methylethylidene)-6-heptylamino-α-D-mannofuranoside] | 19 | 7.41 | 
CC1(C)O[C@@H]2[C@H](O1)[C@@H](OCCCc1ccccc1)O[C@@H]2[C@H](O)CNCCCN1CCCC1 [Compound 22, Phenylpropyl 6-deoxy 2,3-O-(1-methylethylidene)-6-aminopropylpyrrolidinyl-α-D-mannofuranoside] | 16 |  | 
C[C@@H]([C@H]1O[C@H](OCCCc2ccccc2)[C@H]2OC(C)(C)O[C@H]21)N1CCCC1 [Compound 24, Phenylpropyl 5,6-dideoxy 2,3-O-(1-methylethylidene)-5-pyrrolidinyl-β-L-gulofuranoside] | 225 | 95.5 | 
C[C@@H](OCCCN(C)C)[C@H]1O[C@H](OCCCc2ccccc2)[C@H]2OC(C)(C)O[C@H]21 [Compound 26, Phenylpropyl 6-deoxy 2,3-O-(1-methylethylidene)-5-O-3'-(N'N'-dimethylamino-n-propyl)-α-D-mannofuranoside] | 65 | 58.9 | 
C[C@@H](OCCN1CCCC1)[C@H]1O[C@H](OCCCc2ccccc2)[C@H]2OC(C)(C)O[C@H]21 [Compound 27, Phenylpropyl 6-deoxy 2,3-O-(1-methylethylidene)-5-O-(N'-ethylpyrrolidinyl)-α-D-mannofuranoside] | 148 |  | 
CC1(C)O[C@@H]2[C@H](O1)[C@@H](OCCCCN1CCCC1)O[C@@H]2[C@H](O)CO [Compound 29, 4'-(1-Pyrrolidinyl)butyl 2,3-O-(1-methylethylidene)-α-D-mannofuranoside] | 190 |  | 
n-Nonyloxypropyl 2,3-O-(1-methylethylidene)-6-deoxy-6-aminothylpyrrolidinyl-α-D-mannofuranoside [Compound 7] |  |  | 105
